This is an account of results in US20240226343A1, “NEUROPEPTIDE Y1 RECEPTOR (NPY1R) TARGETED THERAPEUTICS AND USES THEREOF” (RADIONETICS ONCOLOGY, INC., priority 2022, published 2024).

For the first test, the target named is T1, hNPY1R (Homo sapiens, UniProt P25929).
T1 construct: SK-N-MC cells endogenously expressing the NPY1R receptor; endogenous in cells; host or cells: SK-N-MC cells (crude membrane fractions)
T1 sequence (P25929 1-384): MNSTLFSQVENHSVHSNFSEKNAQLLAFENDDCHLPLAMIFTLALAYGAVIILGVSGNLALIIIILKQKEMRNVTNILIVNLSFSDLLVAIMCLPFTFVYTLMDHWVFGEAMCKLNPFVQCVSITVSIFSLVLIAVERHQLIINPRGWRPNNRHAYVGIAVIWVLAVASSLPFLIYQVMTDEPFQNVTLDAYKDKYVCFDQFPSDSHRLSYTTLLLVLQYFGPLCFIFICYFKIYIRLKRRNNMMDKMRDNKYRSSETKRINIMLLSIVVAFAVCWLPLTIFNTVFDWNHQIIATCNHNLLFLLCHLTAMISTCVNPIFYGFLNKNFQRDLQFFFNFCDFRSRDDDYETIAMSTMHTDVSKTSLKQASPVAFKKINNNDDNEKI
In words: NPY1R binding assay: SK-N-MC membranes, [125I]-Peptide YY (human) competition. To be noted: data obtained after 60 minutes at 37° C.; SK-N-MC membranes; [125I]-Peptide YY 0.05 nM; read-out: hNPY1R binding Ki* †.
Take `CCC(=O)NCCNC(=O)/N=C(/N)NCCC[C@@H](NC(=O)C(c1ccccc1)c1cccc(OCCOCCOCCOCCOCCNC(=O)CN2CCN(CC(=O)O)CCN(CC(=O)O)CCN(CC(=O)O)CC2)c1)C(=O)NCc1ccc(CNC(N)=O)cc1` (single isomer, unassigned) [Compound 114A]: the Ki is 10 to 100 nM.
Still for that read-out and setting: the result for `N=C(N)NCCC[C@@H](NC(=O)C(c1ccccc1)c1cccc(OCCOCCOCCOCCOCCNC(=O)CN2CCN(CC(=O)O)CCN(CC(=O)O)CCN(CC(=O)O)CC2)c1)C(=O)NCc1ccc(CNC(N)=O)cc1` (stereo partly drawn) [Compound 113A, 2,2′,2″-(10-(17-(3-(2-(((R)-5-guanidino-1-oxo-1-((4-(ureidomethyl)benzyl)amino)pentan-2-yl)amino)-2-oxo-1-phenylethyl)phenoxy)-2-oxo-6,9,12,15-tetraoxa-3-azaheptadecyl)-1,4,7,10-tetraazacyclododecane-1,4,7-triyl)triacetic acid—2,2,2-trifluoroacetic acid (1/1)] reads over 100 nM; that for `CCC(=O)NCCNC(=O)/N=C(/N)NCCC[C@@H](NC(=O)C(c1ccccc1)c1cccc(OCCCCNC(=O)CNC(=O)[C@@H](CC(N)=O)NC(=O)CN2CCN(CC(=O)O)CCN(CC(=O)O)CCN(CC(=O)O)CC2)c1)C(=O)NCc1ccc(O)cc1` (single isomer, unassigned) [Compound 112A], 10 to 100 nM.
Same read-out and setting: the figure for `CCC(=O)NCCNC(=O)/N=C(/N)NCCC[C@@H](NC(=O)C(c1ccccc1)c1cccc(OCCCCNC(=O)[C@H](CS(=O)(=O)O)NC(=O)CN2CCN(CC(=O)O)CCN(CC(=O)O)CCN(CC(=O)O)CC2)c1)C(=O)NCc1ccc(O)cc1` (single isomer, unassigned) [Compound 107A] is 10 to 100 nM.
Same read-out and setting: the figure for `CCC(=O)NCCNC(=O)/N=C(/N)NCCC[C@@H](NC(=O)C(c1ccccc1)c1ccc(NCCCNc2c(NCCNC(=O)CN3CCN(CC(=O)O)CCN(CC(=O)O)CCN(CC(=O)O)CC3)c(=O)c2=O)cc1)C(=O)NCc1ccc(O)cc1` (single isomer, unassigned) [Compound 124A] is 10 to 100 nM.
Take `CCC(=O)NCCNC(=O)/N=C(/N)NCCC[C@@H](NC(=O)C(c1ccccc1)c1cccc(OCCCCNC(=O)CCOCCNC(=O)CN2CCN(CC(=O)O)CCN(CC(=O)O)CCN(CC(=O)O)CC2)c1)C(=O)NCc1ccc(O)cc1` (single isomer, unassigned) [Compound 108A]: the Ki is under 10 nM.
Still for that read-out and setting: the figure for `CCC(=O)NCCNC(=O)/N=C(/N)NCCC[C@@H](NC(=O)C(c1ccccc1)c1cccc(OCCOCCOCCOCCOCCNC(=O)CN2CCN(CC(=O)O)CCN(CC(=O)O)CCN(CC(=O)O)CC2)c1)C(=O)NCc1ccc(O)cc1` (single isomer, unassigned) [Compound 101A] is under 10 nM.
The same measure, in the same setting: the result for `CCC(=O)NCCNC(=O)/N=C(/N)NCCC[C@@H](NC(=O)C(c1ccccc1)c1cccc(OCCCCNC(=O)[C@H](N)CCCCNC(=O)CN2CCN(CC(=O)O)CCN(CC(=O)O)CCN(CC(=O)O)CC2)c1)C(=O)NCc1ccc(O)cc1` (single isomer, unassigned) [Compound 109A] reads under 10 nM; that for `CCC(=O)NCCNC(=O)/N=C(/N)NCCC[C@@H](NC(=O)C(c1ccccc1)c1cccc(OCCOCCOCCOCCOCCNC(=O)CN2CCN(CC(=O)O)CCN(CC(=O)O)CCN(CC(=O)O)CC2)c1)C(=O)NCc1ccc(CNC(N)=O)cc1` (single isomer, unassigned) [Compound 114B], 10 to 100 nM.

Staying with this test, now noted: data obtained after 120 minutes at rt; SK-N-MC membranes; [125I]-Peptide YY; read-out: hNPY.R binding Ki* ††.
As for `CCC(=O)NCCNC(=O)/N=C(/N)NCCC[C@@H](NC(=O)C(c1ccccc1)c1ccc(NCCCNC(=O)CN2CCC(NC(=O)CN3CCN(CC(=O)O)CCN(CC(=O)O)CCN(CC(=O)O)CC3)CC2)cc1)C(=O)NCc1ccc(O)cc1` (single isomer, unassigned) [Compound 133B], the Ki was under 10 nM.
As for `CCC(=O)NCCNC(=O)/N=C(/N)NCCC[C@@H](NC(=O)C(c1ccccc1)c1cccc(NCCCNC(=O)CCOCCNC(=O)CN2CCN(CC(=O)O)CCN(CC(=O)O)CCN(CC(=O)O)CC2)c1)C(=O)NCc1ccc(O)cc1` (single isomer, unassigned) [Compound 121A], the Ki was under 10 nM.
Still for that read-out and setting: the figure for `CCC(=O)NCCNC(=O)/N=C(/N)NCCC[C@@H](NC(=O)C(c1ccccc1)c1cccc(OCCCCNC(=O)CCCCCNC(=O)CN2CCN(CC(=O)O)CCN(CC(=O)O)CCN(CC(=O)O)CC2)c1)C(=O)NCc1ccc(O)cc1` (single isomer, unassigned) [Compound 140B] is under 10 nM.
With `CCC(=O)NCCNC(=O)/N=C(/N)NCCC[C@@H](NC(=O)C(c1ccccc1)c1cccc(OCCCCNC(=O)[C@H](N)CCCCNC(=O)c2ccc(CNC(=O)CN3CCN(CC(=O)O)CCN(CC(=O)O)CCN(CC(=O)O)CC3)cc2)c1)C(=O)NCc1ccc(O)cc1` (single isomer, unassigned) [Compound 142B], the inhibition constant (Ki) is under 10 nM.
The same measure, in the same setting: the result for `CCC(=O)NCCNC(=O)/N=C(/N)NCCC[C@@H](NC(=O)C(c1ccccc1)c1cccc(OCCCCNC(=O)CCCCCNC(=O)CN2CCN(CC(=O)O)CCN(CC(=O)O)CCN(CC(=O)O)CC2)c1)C(=O)NCc1c(F)cc(O)cc1F` (single isomer, unassigned) [Compound 161A] reads under 10 nM; that for `CCNC(=O)/N=C(/N)NCCC[C@@H](NC(=O)C(c1ccccc1)c1cccc(OCCCCNC(=O)[C@@H](Cc2ccc(-c3ccccc3)cc2)NC(=O)[C@@H](CN)NC(=O)CN2CCN(CC(=O)O)CCN(CC(=O)O)CCN(CC(=O)O)CC2)c1)C(=O)NCc1ccc(O)cc1` (single isomer, unassigned) [Compound 148B], under 10 nM.
As to `CCC(=O)NCCNC(=O)/N=C(/N)NCCC[C@@H](NC(=O)C(c1ccccc1)c1cccc(OCCCCNC(=O)[C@@H](CO)NC(=O)CCNC(=O)CN2CCN(CC(=O)O)CCN(CC(=O)O)CCN(CC(=O)O)CC2)c1)C(=O)NCc1c(F)cc(O)cc1F` (single isomer, unassigned) [Compound 165B], the inhibitory constant (Ki) is under 10 nM.
Consider `CCC(=O)NCCNC(=O)/N=C(/N)NCCC[C@@H](NC(=O)C(c1ccccc1)c1ccc(NCCCNC(=O)[C@H](N)CCC(=O)NCCN(C)CCNC(=O)CN2CCN(CC(=O)O)CCN(CC(=O)O)CCN(CC(=O)O)CC2)cc1)C(=O)NCc1ccc(O)cc1` (single isomer, unassigned) [Compound 145A], for which the Ki was under 10 nM.
Same read-out and setting: the result for `CCC(=O)NCCNC(=O)/N=C(/N)NCCC[C@@H](NC(=O)C(c1ccccc1)c1ccc(NCCCNC(=O)[C@H](N)CCC(=O)NCCN(C)CCNC(=O)CN2CCN(CC(=O)O)CCN(CC(=O)O)CCN(CC(=O)O)CC2)cc1)C(=O)NCc1ccc(O)cc1` (single isomer, unassigned) [Compound 145B] reads under 10 nM; that for `CCC(=O)NCCNC(=O)/N=C(/N)NCCC[C@@H](NC(=O)C(c1ccccc1)c1cccc(OCCCCNc2c(NCCNC(=O)[C@@H](CN)NC(=O)CN3CCN(CC(=O)O)CCN(CC(=O)O)CCN(CC(=O)O)CC3)c(=O)c2=O)c1)C(=O)NCc1ccc(O)cc1` (single isomer, unassigned) [Compound 115A], under 10 nM.
Same read-out and setting: the result for `CCC(=O)NCCNC(=O)/N=C(/N)NCCC[C@@H](NC(=O)C(c1ccccc1)c1cccc(NCCCNC(=O)CCOCCNC(=O)CN2CCN(CC(=O)O)CCN(CC(=O)O)CCN(CC(=O)O)CC2)c1)C(=O)NCc1ccc(O)cc1` (single isomer, unassigned) [Compound 121B] reads under 10 nM; that for `CCC(=O)NCCNC(=O)/N=C(/N)NCCC[C@@H](NC(=O)C(c1ccccc1)c1ccc(NCCCNC(=O)NOCCNC(=O)CN2CCN(CC(=O)O)CCN(CC(=O)O)CCN(CC(=O)O)CC2)cc1)C(=O)NCc1ccc(O)cc1` (single isomer, unassigned) [Compound 160], 10 to 100 nM; that for `CCC(=O)NCCNC(=O)/N=C(/N)NCCC[C@@H](NC(=O)C(c1ccccc1)c1cccc(OCCCCNC(=O)[C@@H](CCCNC(=N)N)NC(=O)CCNC(=O)CN2CCN(CC(=O)O)CCN(CC(=O)O)CCN(CC(=O)O)CC2)c1)C(=O)NCc1ccc(O)cc1` (single isomer, unassigned) [Compound 141B], under 10 nM.
Turning to `CCC(=O)NCCNC(=O)/N=C(/N)NCCC[C@@H](NC(=O)C(c1ccccc1)c1ccc(NCC(=O)N(C)CCCN(C)CCCN(C)C(=O)CN2CCN(CC(=O)O)CCN(CC(=O)O)CCN(CC(=O)O)CC2)cc1)C(=O)NCc1ccc(O)cc1` (single isomer, unassigned) [Compound 139B], the Ki was under 10 nM.
Turning to `CCC(=O)NCCNC(=O)/N=C(/N)NCCC[C@@H](NC(=O)C(c1ccccc1)c1ccc(NCCCNc2c(NCCNC(=O)CN3CCN(CC(=O)O)CCN(CC(=O)O)CCN(CC(=O)O)CC3)c(=O)c2=O)cc1)C(=O)NCc1ccc(O)cc1` (single isomer, unassigned) [Compound 124A], the Ki is under 10 nM.
Still for that read-out and setting: the figure for `CCC(=O)NCCNC(=O)/N=C(/N)NCCC[C@@H](NC(=O)C(c1ccccc1)c1ccc(NCC(=O)N(C)CCCN(C)CCCN(C)C(=O)CN2CCN(CC(=O)O)CCN(CC(=O)O)CCN(CC(=O)O)CC2)cc1)C(=O)NCc1ccc(O)cc1` (single isomer, unassigned) [Compound 139A] is under 10 nM; for `CCC(=O)NCCNC(=O)/N=C(/N)NCCC[C@@H](NC(=O)C(c1ccccc1)c1cccc(OCCCCNC(=O)CCCCCNC(=O)CN2CCN(CC(=O)O)CCN(CC(=O)O)CCN(CC(=O)O)CC2)c1)C(=O)NCc1c(F)cc(O)cc1F` (single isomer, unassigned) [Compound 161B] it is under 10 nM.
As for `CCC(=O)NCCNC(=O)/N=C(/N)NCCC[C@@H](NC(=O)C(c1ccccc1)c1ccc(OCCCNc2c(NCCNC(=O)CN3CCN(CC(=O)O)CCN(CC(=O)O)CCN(CC(=O)O)CC3)c(=O)c2=O)cc1)C(=O)NCc1ccc(O)cc1` (single isomer, unassigned) [Compound 136B], the inhibitory constant (Ki) was under 10 nM.
Turning to `CCC(=O)NCCNC(=O)/N=C(/N)NCCC[C@@H](NC(=O)C(c1ccccc1)c1cccc(OCCCCNc2c(NCCNC(=O)[C@@H](CCCCN)NC(=O)CN3CCN(CC(=O)O)CCN(CC(=O)O)CCN(CC(=O)O)CC3)c(=O)c2=O)c1)C(=O)NCc1ccc(O)cc1` (single isomer, unassigned) [Compound 116A], the Ki was under 10 nM.

Broadly, the Ki is a measure of affinity in units of concentration, obtained from inhibition or displacement.
